Assay results as given in PubChem BioAssay (NCI).
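Results reflect a 48-hour exposure of cells in 96-well plates to compound at five concentrations. Definition used: TGI = concentration required for complete inhibition of growth.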

Tests used:
Experiment in all cases: NCI tumour cell line growth inhibition, 48 h
SK-OV-3 ovarian = test system: SK-OV-3 ovarian
U251 CNS = test system: U251 CNS
NCI-H522 lung = test system: NCI-H522 lung
HOP-62 NSCLC = test system: HOP-62 NSCLC
SF-268 CNS = test system: SF-268 CNS
CCRF-CEM leukemia = test system: CCRF-CEM leukemia
SK-MEL-5 melanoma = test system: SK-MEL-5 melanoma
HOP-18 NSCLC = test system: HOP-18 NSCLC
UO-31 renal = test system: UO-31 renal
UACC-257 melanoma = test system: UACC-257 melanoma
TK-10 renal = test system: TK-10 renal
OVCAR-8 ovarian = test system: OVCAR-8 ovarian
HT29 colon = test system: HT29 colon
KM12 colon = test system: KM12 colon
HCT-116 colon = test system: HCT-116 colon
MOLT-4 leukemia = test system: MOLT-4 leukemia
IGROV1 ovarian = test system: IGROV1 ovarian
RPMI-8226 leukemia = test system: RPMI-8226 leukemia
NCI-H23 lung = test system: NCI-H23 lung
SF-539 CNS = test system: SF-539 CNS
K-562 leukemia = test system: K-562 leukemia
NCI-H226 lung = test system: NCI-H226 lung
OVCAR-3 ovarian = test system: OVCAR-3 ovarian
SK-MEL-28 melanoma = test system: SK-MEL-28 melanoma
SNB-75 CNS = test system: SNB-75 CNS
HOP-92 NSCLC = test system: HOP-92 NSCLC
NCI-H460 lung = test system: NCI-H460 lung
HCC-2998 colon = test system: HCC-2998 colon
SF-295 CNS = test system: SF-295 CNS
SNB-19 CNS = test system: SNB-19 CNS
SR leukemia = test system: SR leukemia
HL-60(TB) leukemia = test system: HL-60(TB) leukemia
M19-MEL melanoma = test system: M19-MEL melanoma
SW-620 colon = test system: SW-620 colon
A549 NSCLC = test system: A549 NSCLC
DLD-1 colon = test system: DLD-1 colon
COLO 205 colon = test system: COLO 205 colon
UACC-62 melanoma = test system: UACC-62 melanoma
ACHN renal = test system: ACHN renal
LXFL 529 NSCLC = test system: LXFL 529 NSCLC
SNB-78 CNS = test system: SNB-78 CNS
KM20L2 colon = test system: KM20L2 colon
DMS 273 small cell lung = test system: DMS 273 small cell lung
RXF 393 renal = test system: RXF 393 renal
LOX IMVI melanoma = test system: LOX IMVI melanoma
OVCAR-5 ovarian = test system: OVCAR-5 ovarian
MALME-3M melanoma = test system: MALME-3M melanoma
XF 498 CNS = test system: XF 498 CNS
A498 renal = test system: A498 renal
HCT-15 colon = test system: HCT-15 colon
786-0 renal = test system: 786-0 renal
CAKI-1 renal = test system: CAKI-1 renal
EKVX NSCLC = test system: EKVX NSCLC
DMS 114 small cell lung = test system: DMS 114 small cell lung
SN12C renal = test system: SN12C renal
OVCAR-4 ovarian = test system: OVCAR-4 ovarian
M14 melanoma = test system: M14 melanoma

Nc1c(C(=O)N/N=C/c2ccccc2)sc(=S)n1-c1ccccc1
TGI (SK-OV-3 ovarian): > 100 µM
TGI (U251 CNS): > 100 µM
TGI (NCI-H522 lung): > 100 µM
TGI (HOP-62 NSCLC): > 100 µM
TGI (SF-268 CNS): > 100 µM
TGI (CCRF-CEM leukemia): > 100 µM
TGI (SK-MEL-5 melanoma): > 100 µM
TGI (HOP-18 NSCLC): > 100 µM
TGI (UO-31 renal): > 100 µM
TGI (UACC-257 melanoma): > 100 µM
TGI (TK-10 renal): > 100 µM
TGI (OVCAR-8 ovarian): > 100 µM
TGI (HT29 colon): > 100 µM
TGI (KM12 colon): > 100 µM
TGI (HCT-116 colon): > 100 µM
TGI (MOLT-4 leukemia): > 100 µM
TGI (IGROV1 ovarian): > 100 µM
TGI (RPMI-8226 leukemia): > 100 µM
TGI (NCI-H23 lung): > 100 µM
TGI (SF-539 CNS): > 100 µM
TGI (K-562 leukemia): > 100 µM
TGI (NCI-H226 lung): > 100 µM
TGI (OVCAR-3 ovarian): > 100 µM
TGI (SK-MEL-28 melanoma): > 100 µM
TGI (SNB-75 CNS): > 100 µM
TGI (HOP-92 NSCLC): > 100 µM
TGI (NCI-H460 lung): > 100 µM
TGI (HCC-2998 colon): > 100 µM
TGI (SF-295 CNS): > 100 µM
TGI (SNB-19 CNS): > 100 µM
TGI (SR leukemia): > 100 µM
TGI (HL-60(TB) leukemia): > 100 µM
TGI (M19-MEL melanoma): > 100 µM
TGI (SW-620 colon): > 100 µM
TGI (A549 NSCLC): > 100 µM
TGI (DLD-1 colon): > 100 µM
TGI (COLO 205 colon): > 100 µM
TGI (UACC-62 melanoma): > 100 µM
TGI (ACHN renal): > 100 µM
TGI (LXFL 529 NSCLC): > 100 µM

Cc1ccc(C)c(NC(=O)c2cccc([N+](=O)[O-])c2O)c1
TGI (SK-OV-3 ovarian): > 100 µM
TGI (U251 CNS): > 100 µM
TGI (NCI-H522 lung): 67.2 µM
TGI (HOP-62 NSCLC): 47.1 µM
TGI (SF-268 CNS): > 100 µM
TGI (CCRF-CEM leukemia): > 100 µM
TGI (SK-MEL-5 melanoma): 25.2 µM
TGI (SNB-78 CNS): 56.9 µM
TGI (KM20L2 colon): > 100 µM
TGI (HOP-18 NSCLC): > 100 µM
TGI (UO-31 renal): 51.9 µM
TGI (DMS 273 small cell lung): 77.5 µM
TGI (RXF 393 renal): 37.8 µM
TGI (UACC-257 melanoma): 63 µM
TGI (LOX IMVI melanoma): 53.5 µM
TGI (OVCAR-8 ovarian): > 100 µM
TGI (HT29 colon): > 100 µM
TGI (OVCAR-5 ovarian): > 100 µM
TGI (KM12 colon): 61.5 µM
TGI (MALME-3M melanoma): 81.6 µM
TGI (HCT-116 colon): 81 µM
TGI (XF 498 CNS): 67.3 µM
TGI (MOLT-4 leukemia): > 100 µM
TGI (IGROV1 ovarian): > 100 µM
TGI (RPMI-8226 leukemia): > 100 µM
TGI (NCI-H23 lung): 49 µM
TGI (SF-539 CNS): > 100 µM
TGI (A498 renal): 80.9 µM
TGI (HCT-15 colon): > 100 µM
TGI (K-562 leukemia): > 100 µM
TGI (NCI-H226 lung): 68.8 µM
TGI (786-0 renal): > 100 µM
TGI (CAKI-1 renal): > 100 µM
TGI (OVCAR-3 ovarian): > 100 µM
TGI (SK-MEL-28 melanoma): > 100 µM
TGI (SNB-75 CNS): 63.8 µM
TGI (HOP-92 NSCLC): 41.3 µM
TGI (NCI-H460 lung): 68.4 µM
TGI (EKVX NSCLC): > 100 µM
TGI (HCC-2998 colon): > 100 µM
TGI (SF-295 CNS): 41.5 µM
TGI (DMS 114 small cell lung): 47.6 µM
TGI (SN12C renal): > 100 µM
TGI (SNB-19 CNS): > 100 µM
TGI (HL-60(TB) leukemia): > 100 µM
TGI (OVCAR-4 ovarian): 80.8 µM
TGI (M19-MEL melanoma): 82.1 µM
TGI (SW-620 colon): > 100 µM
TGI (A549 NSCLC): > 100 µM
TGI (DLD-1 colon): > 100 µM
TGI (M14 melanoma): > 100 µM
TGI (COLO 205 colon): 31.1 µM
TGI (UACC-62 melanoma): 82.9 µM
TGI (ACHN renal): 57.6 µM
TGI (LXFL 529 NSCLC): > 100 µM
